Laboratory results: US20260092071A1, “COMPOUNDS AND COMPOSITIONS AS SMARCA2/4 DEGRADERS AND USES THEREOF” (REGENTS OF THE UNIVERSITY OF MICHIGAN, priority 2022, published 2026)

What was measured:
SMARCA2 = SMARCA2 (Homo sapiens, UniProt P51531); test: HiBit assay in engineered HT1080 CRISPR knock-in cell, 6 hrs (B series), SMARCA2; type: cell-based; settings: 6 hrs incubation; for DC50: HT1080 CRISPR knock-in cells, read-out: SMARC A2 HT1080 HiBit DC50; for Dmax: HT-1080, HT1080 CRISPR knock-in cells, read-out: SMARC A2 HT1080 HiBit Dmax (%)
Sequence of SMARCA2 (P51531 whole entry): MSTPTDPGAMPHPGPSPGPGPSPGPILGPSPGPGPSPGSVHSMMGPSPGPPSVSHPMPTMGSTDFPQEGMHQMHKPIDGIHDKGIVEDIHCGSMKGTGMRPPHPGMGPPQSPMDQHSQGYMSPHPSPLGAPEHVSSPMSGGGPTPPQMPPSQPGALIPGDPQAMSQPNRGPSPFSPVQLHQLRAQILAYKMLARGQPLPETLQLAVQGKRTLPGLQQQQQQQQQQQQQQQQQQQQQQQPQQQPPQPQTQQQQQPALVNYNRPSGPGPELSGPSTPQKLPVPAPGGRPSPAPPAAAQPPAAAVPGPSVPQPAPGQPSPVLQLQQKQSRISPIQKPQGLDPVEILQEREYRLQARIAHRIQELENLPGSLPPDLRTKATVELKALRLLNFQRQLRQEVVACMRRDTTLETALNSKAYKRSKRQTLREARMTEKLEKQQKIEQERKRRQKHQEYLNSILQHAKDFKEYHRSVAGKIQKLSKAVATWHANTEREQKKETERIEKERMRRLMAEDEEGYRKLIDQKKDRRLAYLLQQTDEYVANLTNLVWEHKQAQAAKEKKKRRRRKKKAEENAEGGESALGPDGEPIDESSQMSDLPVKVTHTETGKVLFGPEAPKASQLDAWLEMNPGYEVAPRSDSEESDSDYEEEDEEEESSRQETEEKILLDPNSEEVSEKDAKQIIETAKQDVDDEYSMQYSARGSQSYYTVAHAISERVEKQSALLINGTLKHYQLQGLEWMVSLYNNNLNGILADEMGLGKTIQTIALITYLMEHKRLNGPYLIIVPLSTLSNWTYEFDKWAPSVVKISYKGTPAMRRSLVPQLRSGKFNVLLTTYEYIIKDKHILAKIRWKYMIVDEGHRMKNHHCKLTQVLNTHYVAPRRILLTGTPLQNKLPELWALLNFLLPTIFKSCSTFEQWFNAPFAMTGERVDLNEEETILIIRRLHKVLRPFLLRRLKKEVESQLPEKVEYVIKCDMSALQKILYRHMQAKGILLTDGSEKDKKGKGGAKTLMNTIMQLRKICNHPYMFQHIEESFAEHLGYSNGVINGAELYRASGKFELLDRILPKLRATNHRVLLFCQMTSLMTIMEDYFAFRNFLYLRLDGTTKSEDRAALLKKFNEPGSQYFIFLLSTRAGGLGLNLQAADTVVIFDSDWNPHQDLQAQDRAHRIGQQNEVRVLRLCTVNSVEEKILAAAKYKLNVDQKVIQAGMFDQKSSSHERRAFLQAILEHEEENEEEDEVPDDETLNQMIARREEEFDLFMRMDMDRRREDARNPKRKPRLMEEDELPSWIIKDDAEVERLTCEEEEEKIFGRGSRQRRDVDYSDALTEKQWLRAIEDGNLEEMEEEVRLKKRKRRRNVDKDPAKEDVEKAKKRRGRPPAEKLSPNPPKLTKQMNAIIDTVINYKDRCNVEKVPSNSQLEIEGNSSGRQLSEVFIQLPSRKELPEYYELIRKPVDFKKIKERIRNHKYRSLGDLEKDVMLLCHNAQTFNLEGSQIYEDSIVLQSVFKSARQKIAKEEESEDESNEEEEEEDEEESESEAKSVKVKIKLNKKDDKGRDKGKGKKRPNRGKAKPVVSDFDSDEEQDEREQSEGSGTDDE
Summary of the method: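 Remaining SMARCA2 protein measured as HiBiT luminescence after cell lysis with LgBiT plus lytic substrate. Engineered HT1080 knock-in cells (2000/well) were first treated 6 h at 37 °C with compound at a final 0.1% DMSO.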

SMARCA4 = SMARCA4 (Homo sapiens, UniProt P51532); test: HiBit assay in engineered HT1080 CRISPR knock-in cell, 6 hrs (B series), SMARCA4; type: cell-based; settings: 6 hrs incubation; for DC50: HT1080 CRISPR knock-in cells, read-out: SMARC A4 HT1080 HiBit DC50; for Dmax: HT-1080, HT1080 CRISPR knock-in cells, read-out: SMARC A4 HT1080 HiBit Dmax(%)
Sequence of SMARCA4 (P51532 whole entry): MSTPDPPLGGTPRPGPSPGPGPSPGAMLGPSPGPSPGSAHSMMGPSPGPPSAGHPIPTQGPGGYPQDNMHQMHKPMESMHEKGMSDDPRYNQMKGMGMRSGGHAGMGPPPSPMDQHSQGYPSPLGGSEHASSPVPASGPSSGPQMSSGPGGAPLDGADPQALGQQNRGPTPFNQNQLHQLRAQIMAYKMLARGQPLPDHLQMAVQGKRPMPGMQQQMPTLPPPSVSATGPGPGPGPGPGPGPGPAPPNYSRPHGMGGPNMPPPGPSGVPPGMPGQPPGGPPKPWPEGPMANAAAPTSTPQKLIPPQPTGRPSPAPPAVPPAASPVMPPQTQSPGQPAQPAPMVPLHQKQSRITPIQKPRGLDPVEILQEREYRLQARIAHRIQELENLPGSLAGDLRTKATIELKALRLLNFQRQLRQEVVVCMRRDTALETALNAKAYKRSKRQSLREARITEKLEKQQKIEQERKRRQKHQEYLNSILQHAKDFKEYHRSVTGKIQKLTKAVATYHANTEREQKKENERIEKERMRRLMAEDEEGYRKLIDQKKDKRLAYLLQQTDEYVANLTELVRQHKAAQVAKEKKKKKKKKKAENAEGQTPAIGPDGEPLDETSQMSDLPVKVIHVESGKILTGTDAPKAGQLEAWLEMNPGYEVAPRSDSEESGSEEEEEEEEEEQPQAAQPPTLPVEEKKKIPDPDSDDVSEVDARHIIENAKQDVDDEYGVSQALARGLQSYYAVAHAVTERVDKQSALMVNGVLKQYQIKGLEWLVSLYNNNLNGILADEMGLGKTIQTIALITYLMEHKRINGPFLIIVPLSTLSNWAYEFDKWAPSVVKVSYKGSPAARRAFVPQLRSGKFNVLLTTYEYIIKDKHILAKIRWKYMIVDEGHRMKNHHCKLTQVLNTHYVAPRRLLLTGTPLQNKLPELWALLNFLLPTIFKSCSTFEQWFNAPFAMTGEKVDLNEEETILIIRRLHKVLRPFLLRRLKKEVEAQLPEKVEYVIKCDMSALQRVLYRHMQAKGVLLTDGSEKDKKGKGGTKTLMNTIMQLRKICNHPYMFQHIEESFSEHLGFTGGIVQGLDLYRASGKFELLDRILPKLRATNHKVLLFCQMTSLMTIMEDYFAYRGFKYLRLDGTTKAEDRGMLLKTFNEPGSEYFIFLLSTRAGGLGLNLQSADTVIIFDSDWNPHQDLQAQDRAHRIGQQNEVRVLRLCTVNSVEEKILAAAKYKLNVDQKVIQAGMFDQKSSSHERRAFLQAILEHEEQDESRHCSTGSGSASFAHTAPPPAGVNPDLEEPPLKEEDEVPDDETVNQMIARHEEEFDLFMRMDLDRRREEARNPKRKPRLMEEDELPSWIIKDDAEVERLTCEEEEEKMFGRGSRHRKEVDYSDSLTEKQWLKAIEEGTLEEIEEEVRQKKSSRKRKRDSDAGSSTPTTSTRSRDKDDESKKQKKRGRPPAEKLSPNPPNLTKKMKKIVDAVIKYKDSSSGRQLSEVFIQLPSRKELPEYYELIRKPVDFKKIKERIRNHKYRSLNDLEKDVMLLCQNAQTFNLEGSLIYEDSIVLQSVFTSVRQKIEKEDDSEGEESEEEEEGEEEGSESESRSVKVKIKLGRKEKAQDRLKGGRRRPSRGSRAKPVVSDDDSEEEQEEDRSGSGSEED
Summary of the method: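 Using a 6 hr treatment window at 37° C and 5% CO2, tagged HT1080 knock-in cells were exposed to test compounds with DMSO vehicle held at 0.1%. Signal came from lytic LgBiT/substrate reagent added after incubation, with control wells lacking LgBiT, and was read as luminescence.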

DC50 (SMARCA2) [nM] | Dmax (SMARCA2) [%] | DC50 (SMARCA4) [nM] | Dmax (SMARCA4) [%] | SMILES
< 100 | > 90 | 100 to 500 | 50 to 69 | Cc1ncsc1-c1ccc([C@H](C)NC(=O)[C@@H]2C[C@@H](O)CN2C(=O)[C@@H](c2cc(OCC#Cc3cccc4c3C(C)(C)c3nc(=O)c5c(Cl)cccc5n3-4)no2)C(C)C)cc1 [Compound B130, (2S,4R)-1-((R)-2-(3-((3-(4-chloro-7,7-dimethyl-5-oxo-5,7-dihydroindolo[1,2-a]quinazolin-8-yl)prop-2-yn-1-yl)oxy)isoxazol-5-yl)-3-methylbutanoyl)-4-hydroxy-N-((S)-1-(4-(4-methylthiazol-5-yl)phenyl)ethyl)pyrrolidine-2-carboxamide]
< 100 | > 90 | < 100 | 50 to 69 | CC#Cc1ccc([C@H](C)NC(=O)[C@@H]2C[C@@H](O)CN2C(=O)[C@H](C(C)C)n2cc([C@H]3CC[C@H](CN4CCC(c5ccc6c(c5)-n5c(nc(=O)c7c(Cl)cccc75)C6(C)C)CC4)CC3)nn2)cc1 [Compound B131, (2S,4R)-1-((S)-2-(4-((1r,4S)-4-((4-(4-chloro-7,7-dimethyl-5-oxo-5,7-dihydroindolo[1,2-a]quinazolin-10-yl)piperidin-1-yl)methyl)cyclohexyl)-1H-1,2,3-triazol-1-yl)-3-methylbutanoyl)-4-hydroxy-N-((S)-1-(4-(prop-1-yn-1-yl)phenyl)ethyl)pyrrolidine-2-carboxamide]
< 100 | > 90 | 100 to 500 | 70 to 90 | Cc1ncsc1-c1ccc([C@H](C)NC(=O)[C@@H]2C[C@@H](O)CN2C(=O)[C@H](C(C)C)n2cc(CC3CCC(N4CCC(c5cccc6c5C(C)(C)c5nc(=O)c7c(Cl)cccc7n5-6)CC4)CC3)nn2)cc1 (stereo partly drawn) [Compound B132, (2S,4R)-1-((S)-2-(4-((4-(4-(4-chloro-7,7-dimethyl-5-oxo-5,7-dihydroindolo[1,2-a]quinazolin-8-yl)piperidin-1-yl)cyclohexyl)methyl)-1H-1,2,3-triazol-1-yl)-3-methylbutanoyl)-4-hydroxy-N—((S)-1-(4-(4-methylthiazol-5-yl)phenyl)ethyl)pyrrolidine-2-carboxamide]
< 100 | > 90 | < 100 | 70 to 90 | Cc1nc(C)c(-c2ccc([C@H](C)NC(=O)[C@@H]3C[C@@H](O)CN3C(=O)[C@@H](n3cc([C@H]4CC[C@H](CN5CCN(c6ccc7c(c6)-n6c(nc(=O)c8c(Cl)cccc86)C7(C)C)CC5)CC4)nn3)C(C)(C)C)cc2)s1 [Compound B133, (2S,4R)-1-((S)-2-(4-((1r,4S)-4-((4-(4-chloro-7,7-dimethyl-5-oxo-5,7-dihydroindolo[1,2-a]quinazolin-10-yl)piperazin-1-yl)methyl)cyclohexyl)-1H-1,2,3-triazol-1-yl)-3,3-dimethylbutanoyl)-N-((S)-1-(4-(2,4-dimethylthiazol-5-yl)phenyl)ethyl)-4-hydroxypyrrolidine-2-carboxamide]
< 100 | > 90 | < 100 | 50 to 69 | CC(=O)c1ccc([C@H](C)NC(=O)[C@@H]2C[C@@H](O)CN2C(=O)[C@H](C(C)C)n2cc([C@H]3CC[C@H](CN4CCC(c5ccc6c(c5)-n5c(nc(=O)c7c(Cl)cccc75)C6(C)C)CC4)CC3)nn2)cc1 [Compound B134, (2S,4R)-N-((S)-1-(4-acetylphenyl)ethyl)-1-((S)-2-(4-((1r,4S)-4-((4-(4-chloro-7,7-dimethyl-5-oxo-5,7-dihydroindolo[1,2-a]quinazolin-10-yl)piperidin-1-yl)methyl)cyclohexyl)-1H-1,2,3-triazol-1-yl)-3-methylbutanoyl)-4-hydroxypyrrolidine-2-carboxamide]
< 100 | > 90 | < 100 | 70 to 90 | C[C@H](NC(=O)[C@@H]1C[C@@H](O)CN1C(=O)[C@@H](n1cc([C@H]2CC[C@H](CN3CCN(c4ccc5c(c4)-n4c(nc(=O)c6c(Cl)cccc64)C5(C)C)CC3)CC2)nn1)C(C)(C)C)c1ccc(-c2scnc2C#CCN2CCOCC2)cc1 [Compound B135, (2S,4R)-1-((S)-2-(4-((1r,4S)-4-((4-(4-chloro-7,7-dimethyl-5-oxo-5,7-dihydroindolo[1,2-a]quinazolin-10-yl)piperazin-1-yl)methyl)cyclohexyl)-1H-1,2,3-triazol-1-yl)-3,3-dimethylbutanoyl)-4-hydroxy-N-((S)-1-(4-(4-(3-morpholinoprop-1-yn-1-yl)thiazol-5-yl)phenyl)ethyl)pyrrolidine-2-carboxamide]
< 100 | > 90 | < 100 | 70 to 90 | CC(C)[C@@H](C(=O)N1C[C@H](O)C[C@H]1C(=O)N[C@@H](C)c1ccc(-c2scnc2C#CCN2CCOCC2)cc1)n1cc([C@H]2CC[C@H](CN3CCN(c4ccc5c(c4)-n4c(nc(=O)c6c(Cl)cccc64)C5(C)C)CC3)CC2)nn1 [Compound B136, (2S,4R)-1-((S)-2-(4-((1r,4S)-4-((4-(4-chloro-7,7-dimethyl-5-oxo-5,7-dihydroindolo[1,2-a]quinazolin-10-yl)piperazin-1-yl)methyl)cyclohexyl)-1H-1,2,3-triazol-1-yl)-3-methylbutanoyl)-4-hydroxy-N-((S)-1-(4-(4-(3-morpholinoprop-1-yn-1-yl)thiazol-5-yl)phenyl)ethyl)pyrrolidine-2-carboxamide]
< 100 | > 90 | < 100 | < 50 | Cc1ncsc1-c1ccc([C@H](C)NC(=O)[C@@H]2C[C@@H](O)CN2C(=O)[C@H](C(C)C)n2cc(C3CCC(c4cccc5c4C(C)(C)c4nc(=O)c6c(Cl)cccc6n4-5)CC3)nn2)cc1 (stereo partly drawn) [Compound B137, (2S,4R)-1-((S)-2-(4-(4-(4-chloro-7,7-dimethyl-5-oxo-5,7-dihydroindolo[1,2-a]quinazolin-8-yl)cyclohexyl)-1H-1,2,3-triazol-1-yl)-3-methylbutanoyl)-4-hydroxy-N-((S)-1-(4-(4-methylthiazol-5-yl)phenyl)ethyl)pyrrolidine-2-carboxamide]
< 100 | > 90 | < 100 | > 90 | Cc1ncsc1-c1ccc([C@H](CN2CCOCC2)NC(=O)[C@@H]2C[C@@H](O)CN2C(=O)[C@@H](c2cc(O[C@H]3CC[C@H](CN4CCN(c5ccc6c(c5)-n5c(nc(=O)c7c(Cl)cccc75)C65CCCCC5)CC4)CC3)no2)C(C)C)cc1 [Compound B138, (2S,4R)-1-((R)-2-(3-(((1r,4R)-4-((4-(4′-chloro-5′-oxo-5′H-spiro[cyclohexane-1,7′-indolo[1,2-a]quinazolin]-10′-yl)piperazin-1-yl)methyl)cyclohexyl)oxy)isoxazol-5-yl)-3-methylbutanoyl)-4-hydroxy-N-((R)-1-(4-(4-methylthiazol-5-yl)phenyl)-2-morpholinoethyl)pyrrolidine-2-carboxamide]
< 100 | > 90 | < 100 | 70 to 90 | Cc1cc(C(C(=O)N2C[C@H](O)C[C@H]2C(=O)N[C@@H](CN2CCC(CN3CCC(c4cccc5c4C(C)(C)c4nc(=O)c6c(Cl)cccc6n4-5)CC3)CC2)c2ccc(-c3scnc3C)cc2)C(C)C)on1 (stereo partly drawn) [Compound B139, (2S,4R)—N—((R)-2-(4-((4-(4-chloro-7,7-dimethyl-5-oxo-5,7-dihydroindolo[1,2-a]quinazolin-8-yl)piperidin-1-yl)methyl)piperidin-1-yl)-1-(4-(4-methylthiazol-5-yl)phenyl)ethyl)-4-hydroxy-1-(3-methyl-2-(3-methylisoxazol-5-yl)butanoyl)pyrrolidine-2-carboxamide]
